Ends that are not written are not given here.
Columns and labels:
HEK-293T cells = assay: Immunofluorescence localization of Flag-progerin-C in HEK-293T cells; assay type: cell-based; conditions: Flag-progerin-C expressed in HEK-293T
Experimental: (§1) Immunofluorescence was performed as described previously. Cells were plated on cover slips in 12-well plates, left overnight before the treatment. Cells were fixed in 1% formaldehyde in culture medium for 10 min at 37 °C and permeabilized with 0.2% Triton X-100 in PBS for 10 min at room temperature. Cells were washed twice in PBS and blocked for 1 h with 5% BSA in PBS and then incubated with primary antibodies at 4 °C overnight, washed three times in PBS and incubated with secondary antibodies for 1 h at room temperature. Cell nuclei were counterstained with a 500 nM concentration of 4,6-diamidino-2-phenylindole (DAPI) (Sigma). Images were acquired by a fluorescence microscope (OLYMPUS FV-1000, Carl Zeiss LSM880 or Leica DMi8) and analyzed with software NIS-Elements AR v.5.0.1 (Nikon), FLUOVIEW v.4.2b (OLYMPUS), ZEN v.2.3 SP1 (Carl Zeiss) and Leica Application Suite X v.3.6.0.24 (Leica). Cells were quantified by investigators who were blinded to the identity of the analyzed cell.

[1] = test system: progerin–BUBR1 interaction; assay: CoIP of progerin and BUBR1 in HEK-293T cells; assay type: cell-based; conditions: HEK-293T cotransfected with Flag-progerin-C 5, 10, 15 μg and HA-progerin
Experimental: Detailed descriptions of CoIP were described previously[55],[56]. Cells were harvested and washed three times in cold PBS, then lysed in CoIP buffer (25 mM Tris-HCl (pH 7.5), 150 mM KCl, 5 mM EDTA, and 0.5% NP-40) plus protease inhibitor cocktail tablet (Roche). Incubate on ice and shock lysates on the vortex shaker 15 times for 30 s each. Microcentrifuge in 12,000g for 15 min at 4 °C, collect the supernatant, and incubate with 3 μg primary antibodies with gentle shaking overnight at 4 °C, followed by adding 20–40 μl Pure Proteome Protein A/G Mix Magnetic Beads (Millipore, catalog no. […]02) for 3 h. Wash the beads three times with 1 ml CoIP buffer for 8 min each, resuspend in 50 μl 1× loading buffer, and incubate at 100 °C for 8 min. Throw beads away and analyze by immunoblotting.

BUBR1 mRNA 3ʹ-UTR = assay: Luciferase activity assay of BUBR1 mRNA 3ʹ-UTR in HEK-293T cells; assay type: cell-based; conditions: Fig. 4k, Vector = 1, P=0.0012
Experimental: The experiments were performed as described previously. The BUBR1 (–1,200 to +100) promoter or the DNA fragment of BUBR1 mRNA 3′-UTR was inserted into the pGL4.20 vector. Cells were plated in 24-well plates. After 24 h, cells were cotransfected with 200 ng of the indicated firefly luciferase reporter plasmid and 50 ng of Renilla luciferase normalization control plasmid using PEI. At 48 h after transfection, cell lysates were collected to measure luciferase activity using the Dual-Luciferase Reporter Assay System (Promega, catalog no. E1910) according to the manufacturer’s instructions. Luciferase reporter assay was carried out on an TD-20/20 Turner Designs luminometer, data were analyzed and further processed in Microsoft Excel and GraphPad Prism v.7.

PTBP1–BUBR1 mRNA 3′-UTR = assay: RIP assay of PTBP1 and BUBR1 mRNA 3′-UTR in HEK-293T cells; assay type: cell-based
Experimental: RIP and RNA pulldown assays were performed as previously described. The RIP experiment was carried out using the EZ-Magna RIP Kit (Millipore, catalog no. 17-701). The coprecipitated RNAs were extracted through Trizol reagent and detected by RT-PCR. The primer sequences for PCR, synthesized by Comate Bioscience, were as follows:
BUBR1-3′UTR_fwd (5′-[…]-3′) and BUBR1-3′UTR_rev (5′- […]-3′).

HGADFN003 cells [2] = assay: SA-β-gal staining of HGADFN003 cells; assay type: cell-based, human; conditions: for SA-β-gal positive cells: HGADFN003, Extended Data Fig. 10c
Experimental: SA-β-gal staining was performed as previously described. Cells were fixed in 0.5% glutaraldehyde for 15 min at room temperature, washed three times with PBS (pH 6.0) containing 1 mM MgCl2 and exposed overnight 37 °C to containing 1 mg ml^–1 5-bromo-4-chloro-3-indolyl-β-D-galactopyranoside (MCE, catalog no. HY-15934), 0.12 mM potassium ferrocyanide (Sigma, catalog no. P3289), 0.12 mM potassium ferricyanide (Sigma, catalog no. P8131) and 1 mM MgCl2 PBS buffer (pH 6.0). Cells were washed three times with H2O and observed under a microscope (OLYMPUS CKX53). SA-β-gal positive cells were quantified by investigators who were blinded to the identity of the analyzed cell.

[3] = test system: BUBR1–progerin interaction; assay: Immunofluorescence of BUBR1 in IMR90 cells with FTI or UPCP; assay type: cell-based, human
Experimental: as §1

[4] = test system: BUBR1 / CyclinA2 in HGADFN003 cells; assay: Western blot of BUBR1 and CyclinA2 in HGADFN003 cells; assay type: cell-based, human; conditions: HGADFN003
Experimental: Western blot was performed as previously described. Cells were lysed in 1× Laemmli sample buffer after washing twice in cold PBS without calcium and magnesium. Protein concentrations were determined using the bicinchoninic acid (BCA) protein assay. Protein lysates were subjected to SDS–PAGE, transferred to 0.45-μm pore size hydrophobic PVDF transfer membrane (Merck Millipore), detected with the appropriate primary antibodies coupled with horseradish peroxidase-conjugated corresponding secondary antibodies, and visualized using enhanced chemiluminescence ECL reagent (GE Healthcare). The Tanon 5500 high-definition low-illumination CCD system (Tanon FLI Capture v.1.02) was used to capture chemiluminescent signals.

HGADFN003 cells [5] = assay: Ki67 immunofluorescence of HGADFN003 cells; assay type: cell-based, human; conditions: for Ki67 positive cells: HGADFN003, Extended Data Fig. 10e
Experimental: as §1

[6] = in vivo; cited from earlier work
Source text: (§2) At present, clinical drugs for HGPS are very rare except for Zokinvy (lonafarnib), which has been approved by the United States (US) Food and Drug Administration (FDA). […] Recently, some gene therapies for HGPS treatment have been developed. The clustered regularly interspaced short palindromic repeat–adeno-associated virus 9 system is used to reduce the expression of progerin and the adenine base editor–adeno-ass ...

HGPS cells = conditions: cited from earlier work
Source text: as §2

## progerin-C: progerin C-terminal region (aa residues 565–614), expressed in cells (HHGSHCSSSGDPAEYNLRSRTVLCGTCGQPADKASASGSGAQSPQNCSIM; cysteine pairing not given here; also: 3×Flag tag, end not given here)
HEK-293T cells
  cellular location: distributed throughout the cell
[1]
  competition with progerin to bind BUBR1: competes with progerin to bind BUBR1

## PTBP1
BUBR1 mRNA 3ʹ-UTR; replicate 1
  Relative luciferase activity of BUBR1 3'UTR (PTBP1/Vector): 3.3
BUBR1 mRNA 3ʹ-UTR; replicate 2
  Relative luciferase activity of BUBR1 3'UTR (PTBP1/Vector): 4
BUBR1 mRNA 3ʹ-UTR; replicate 3
  Relative luciferase activity of BUBR1 3'UTR (PTBP1/Vector): 3
PTBP1–BUBR1 mRNA 3′-UTR; Fig. 4i, IgG = 1, P=0.0086, replicate 1
  PTBP1 enrichment on BUBR1-3'UTR (2-ΔΔCt): 21.8107
PTBP1–BUBR1 mRNA 3′-UTR; Fig. 4i, IgG = 1, P=0.0086, replicate 2
  PTBP1 enrichment on BUBR1-3'UTR (2-ΔΔCt): 40.6928
PTBP1–BUBR1 mRNA 3′-UTR; Fig. 4i, IgG = 1, P=0.0086, replicate 3
  PTBP1 enrichment on BUBR1-3'UTR (2-ΔΔCt): 24.8579
PTBP1–BUBR1 mRNA 3′-UTR; Fig. 4n, PTBP1, Vector = 1, P<0.0001 vs Vector, replicate 1
  PTBP1 enrichment on BUBR1-3'UTR (2-ΔΔCt): 12.7685
PTBP1–BUBR1 mRNA 3′-UTR; Fig. 4n, PTBP1, Vector = 1, P<0.0001 vs Vector, replicate 2
  PTBP1 enrichment on BUBR1-3'UTR (2-ΔΔCt): 13.1604
PTBP1–BUBR1 mRNA 3′-UTR; Fig. 4n, PTBP1, Vector = 1, P<0.0001 vs Vector, replicate 3
  PTBP1 enrichment on BUBR1-3'UTR (2-ΔΔCt): 13.6473

## COC(=O)[C@H](CCSC)NC(=O)c1ccc(NC[C@@H](N)CS)cc1-c1ccccc1 [FTI-277, reference compound]
HGADFN003 cells [2]; HGADFN003
  SA-β-gal activity (FTI-277/UPCP comparison, words): decreased the activity of SA-β-gal
HGADFN003 cells [2]; replicate 1
  SA-β-gal positive cells: 20%
HGADFN003 cells [2]; replicate 2
  SA-β-gal positive cells: 15%
HGADFN003 cells [2]; replicate 3
  SA-β-gal positive cells: 13%
[3]
  block of the interaction of BUBR1 and progerin: failed to block the interaction of BUBR1 and progerin
[4]
  BUBR1 expression (FTI-277/UPCP comparison, words): increasing expression of BUBR1
  CyclinA2 expression (FTI-277/UPCP comparison, words): increasing expression of BUBR1, CyclinA2
HGADFN003 cells [5]; HGADFN003
  Ki67 expression (FTI-277/UPCP comparison, words): increasing expression of BUBR1, CyclinA2 and Ki67
HGADFN003 cells [5]; replicate 1
  Ki67 positive cells: 57%
HGADFN003 cells [5]; replicate 2
  Ki67 positive cells: 61%
HGADFN003 cells [5]; replicate 3
  Ki67 positive cells: 75%

## NC(=O)N1CCC(CC(=O)N2CCC([C@H]3c4ncc(Br)cc4CCc4cc(Cl)cc(Br)c43)CC2)CC1 [Zokinvy (lonafarnib), lonafarnib]
[6]
  adverse reactions: diarrhea and vomiting

## neuropeptide Y
HGPS cells
  cellular HGPS aging phenotype: delays the cellular HGPS aging phenotype by stimulating autophagy and decreasing progerin accumulation

From publication PMC10154249, “Unique progerin C-terminal peptide ameliorates Hutchinson–Gilford progeria syndrome phenotype by rescuing BUBR1” (Nature Aging, 2023)
